Drawing on ChEMBL document CHEMBL1127695, “Rational modification of human synovial fluid phospholipase A2 inhibitors” (J Med Chem, 1994), this text covers inhibition and X1(50) (mole fraction) for two molecules.

Assay [1] deals with Phospholipase A2, major isoenzyme (Sus scrofa) (UniProt P00592). Briefly: Tested for the inhibition of porcine pancreatic enzyme. Conditions: concentration not given here.
The target in assay [2] is T1, Phospholipase A2, membrane associated (Homo sapiens) (UniProt P14555).
T1 sequence (whole entry): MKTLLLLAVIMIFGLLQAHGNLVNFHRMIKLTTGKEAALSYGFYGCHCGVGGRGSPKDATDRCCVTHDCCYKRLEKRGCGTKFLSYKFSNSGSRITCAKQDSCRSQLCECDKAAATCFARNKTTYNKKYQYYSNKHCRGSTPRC
Briefly: Tested for the inhibition of human synovial fluid enzyme phospholipase A2 (PLA2). Conditions: concentration not given here.

For assay [3], the target named is T1, Phospholipase A2, membrane associated (Homo sapiens). Description: Tested for the inhibition of human synovial fluid phospholipase A2.

Chain of Phospholipase A2, major isoenzyme (Sus scrofa) (P00592 23-146 limits assumed): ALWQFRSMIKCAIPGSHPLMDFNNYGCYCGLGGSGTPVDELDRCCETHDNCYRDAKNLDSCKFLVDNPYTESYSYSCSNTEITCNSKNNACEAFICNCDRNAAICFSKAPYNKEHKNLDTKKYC

The term inhibition denotes the percentage by which the read-out fell short of the control. Lower therefore signals a weak effect. Take `CCCCCCCCCCS(=O)(=O)NC(CCCCCC)COP(=O)(O)OCCO` (stereo not drawn): the inhibition in assay [1] worked out at 43%; in assay [2], 66%.
The molecule `CCCCCCCCOC[C@H](COP(=O)(O)OCCN)OP(=O)(O)CCCCCCC` came in with an X1(50) (mole fraction) in assay [3] of 0.025.
